The conditions of series [1]: in vivo.
For series [2] the following is noted: human, in vivo, 28 days.
The conditions of series [3]: in vivo. The source holds these as a separate data set.
Series [4] deals with metastatic castration-resistant prostate cancer (mCRPC). The conditions noted are these: cited from earlier work.

Like-named read-outs stand apart in the source and are kept apart here.

With `CNC(=O)c1ccc2cc([C@@]3(O)CCn4cncc43)ccc2c1` [orteronel], in series [1], the “AUC0-tau and Cmax, alone versus in combination” value is listed as “similar”; the “Mean plasma concentration-time profile, alone versus in combination” value is “similar”. Also, in series [2], the “Recommended phase 2 dose (RP2D) of orteronel in combination with DP” value amounted to 400 mg BID. Further, the Cardiovascular profile result in series [3] was “acceptable cardiovascular profile”.

In the case of `CNC(=O)c1ccc(N2C(=S)N(c3ccc(C#N)c(C(F)(F)F)c3)C(=O)C2(C)C)cc1F` [enzalutamide], the “Median OS” value is reported as “not reached” in series [4] (chemotherapy-naïve mCRPC, versus placebo 31.0, ref [14]) and 18.4 months in series [4] (mCRPC following docetaxel therapy, versus placebo 13.6, ref [17]).

For the compound `CC(=O)O[C@H]1CC[C@@]2(C)C(=CC[C@@H]3[C@@H]2CC[C@]2(C)C(c4cccnc4)=CC[C@@H]32)C1` [Abiraterone acetate], the “Median OS” value in series [4] (chemotherapy-naïve mCRPC, versus placebo 27.2, ref [16]) is recorded as “not reached”; in series [4] (mCRPC following docetaxel therapy, versus placebo 11.2, ref [15]) it was 15.8 months.

With `CC(=O)O[C@@]12CO[C@@H]1C[C@H](O)[C@@]1(C)C(=O)[C@H](O)C3=C(C)[C@@H](OC(=O)[C@H](O)[C@@H](NC(=O)OC(C)(C)C)c4ccccc4)C[C@@](O)([C@@H](OC(=O)c4ccccc4)[C@H]21)C3(C)C` [docetaxel], the Tmax (human, plasma, other: orteronel oral (PO), docetaxel intravenous infusion) was approximately 1 h. Further, the “Mean plasma concentration-time profile, alone versus in combination” value (phase 2, orteronel with/without docetaxel and docetaxel with/without orteronel) is “similar”. In addition, under “phase 2, orteronel with/without docetaxel and vice versa”, the “AUC0-tau and Cmax, alone versus in combination” value is reported as “similar”.

In general, Tmax refers to the time at which the peak concentration occurs.

These data come from paper PMC4390470 (Investigational new drugs, 2015).
